Test results as given in the NIST ThermoML archive (doi:10.1007/s10765-005-8089-2).

Experiment: xn = mol fraction of the nth substance listed
Conditions: Liquid, Falling or rolling sphere viscometry

Cc1ccccc1 [toluene] + CCO
viscosity [mPa·s]
Conditions | x2 = 0.125 | x2 = 0.25 | x2 = 0.375 | x2 = 0.5 | x2 = 0.625 | x2 = 0.75 | x2 = 0.875
293.15 K, 100 kPa | 0.588 | 0.609 | 0.652 | 0.71 | 0.79 | 0.899 | 1.023
293.15 K, 20000 kPa | 0.68 | 0.71 | 0.754 | 0.815 | 0.909 | 1.014 | 1.157
293.15 K, 40000 kPa | 0.781 | 0.816 | 0.866 | 0.931 | 1.034 | 1.152 | 1.306
293.15 K, 60000 kPa | 0.893 | 0.931 | 0.986 | 1.055 | 1.166 | 1.297 | 1.457
293.15 K, 80000 kPa | 1.016 | 1.054 | 1.114 | 1.187 | 1.302 | 1.444 | 1.604
293.15 K, 100000 kPa | 1.153 | 1.189 | 1.251 | 1.331 | 1.449 | 1.6 | 1.757
313.15 K, 100 kPa | 0.462 | 0.471 | 0.49 | 0.525 | 0.574 | 0.635 | 0.717
313.15 K, 20000 kPa | 0.538 | 0.549 | 0.573 | 0.611 | 0.662 | 0.729 | 0.825
313.15 K, 40000 kPa | 0.619 | 0.632 | 0.658 | 0.699 | 0.757 | 0.83 | 0.932
313.15 K, 60000 kPa | 0.705 | 0.718 | 0.747 | 0.792 | 0.854 | 0.933 | 1.039
313.15 K, 80000 kPa | 0.796 | 0.81 | 0.841 | 0.889 | 0.955 | 1.038 | 1.147
313.15 K, 100000 kPa | 0.893 | 0.907 | 0.94 | 0.991 | – | – | –
